Reference: patent publication US6541509B2 (priority 2000, dated 2003)
Where two headings read alike, the source gives them in different places.

Tests used:
microtubules = test: In vitro microtubule polymerization assay; assay type: biochemical; conditions: in the absence of GTP
P-glycoprotein = test: Steady-state accumulation of [3H]Taxol; assay type: cell-based; conditions: Taxol-resistant murine cell line; data not shown
SKOV3 = test: cells; assay type: cell-based, human; conditions: SKOV3, 6 days, mean ± SE
Protocol: (§1) The drug-sensitive mouse macrophage-like cell line, J774.2, and its Taxol-resistant cell line, J7-T3-1.6, were maintained as previously described. […] Drug-sensitive and vinblastine-resistant human ovarian carcinoma cell lines, SKOV3 and SKVLB, were obtained from Dr. V. Ling, and were maintained as previously described. Both J7-T3-1.6 and SKVLB cells overexpress P-glycoprotein. SKVLB cells were grown in the presence of 1 μM vinblastine. The Taxol-resistant human non-small-cell lung carcinoma cell line, A549-T12, was derived from the drug-sensitive A549 cell line; both cell lines were maintained as previously described.
(§2) For the A549 cell lines, cells were seeded at a density of 1×10^4 cells/mL (A549) or 3×10^4 cells/mL (A549-T12), in triplicate, 6-well plates, and allowed to attach for 24 h. […] The SKOV3 and SKVLB cell lines were assayed in a similar manner. Cells were seeded in triplicate, at a density of 6×10^3 cells/mL (SKOV3) or 12×10^3 cells/mL (SKVLB), in 6-well plates, and incubated with a drug for 6 days. […] J774.2 and J7-T3-1.6 cells were plated at a density of 2×10^4 cells/well, in 96-well plates, and allowed to attach overnight. Serial dilutions of each drug were performed, and the cells were incubated for 72 h. The IC50 was determined using the CellTiter 96™ AQueous nonradioactive cell proliferation assay (Promega, Madison, Wis.), which correlates with the number of live cells. Different methods for determining IC50 values were used, depending on the most accurate method for each particular set of cell lines.

A549 = test: cells; assay type: cell-based, human; conditions: A549, 72 h, mean ± SE
Protocol: as §1, §2

A549-T12 = test: cells; assay type: cell-based, human; conditions: for Fold resistance (ratio of IC50 A549-T12 to A549): 72 h
Protocol: as §1, §2

SKVLB = test: cells; assay type: cell-based, human; conditions: for Fold resistance (ratio of IC50, SKVLB and SKOV3): after 6 days
Protocol: as §1, §2

J774.2 = test: cells; assay type: cell-based, mouse; conditions: Mus musculus; J774.2, 72 h, mean ± SE; read-out: IC50 (drug concentration that inhibits cell division by 50%)
Protocol: as §1, §2

J7-T3-1.6 = test: cells; assay type: cell-based, mouse; conditions: for Fold resistance (ratio of IC50 J7-T3-1.6 to J774.2): after 72 h
Protocol: as §1, §2

A549-T12 cells [1] = test: Drug combination assay (colorimetric proliferation assay), Taxol titrated with test drug; assay type: cell-based, human; conditions: 72 h
Protocol: For the drug combination assay, the cells were analyzed after 72 h using a cell proliferation assay, as described below. A: cytotoxicity curves of A549-T12 cells in the absence of Taxol or in the presence of Taxol (in various concentrations), in combination with a range of discodermolide concentrations; B-D: cytotoxicity curves of A549-T12 cells in the absence or presence of 2 nM Taxol, in combination with eleutherobin or the epothilones. —⬭—: no Taxol; ---⬬----: 2 nM Taxol.
For the drug combination assay, A549-T12 cells were seeded in triplicate, at a density of 4×10^4 cells/mL, in 96-well plates, in the absence of Taxol or in the presence of various concentrations of Taxol, in combination with serial dilutions of each test drug. After a 72-h incubation, the plates were assayed using the colorimetric proliferation assay. In order to sustain the growth of A549-T12 cells in the absence of Taxol, cells were seeded at the higher densities described above.

[2] = literature [13], [16]; discodermolide value predicted; cited from earlier work
A549-T12 cells [3] = assay type: cell-based, human; conditions: 48 h
Protocol: A549-T12 cells were grown on cover slips and treated with the different compounds for 48 h. Cells were then permeabilized, fixed, and incubated with an α-tubulin antibody, as described below.
A549-T12 cells, which were grown to subconfluency on glass cover slips in the absence of drug or in the presence of different drugs at varying concentrations (FIG. 4), were prepared for immunofluorescence microscopy as previously described, with the following modifications: (a) nonspecific binding was blocked using 10% normal goat serum in PBS for 30 min at 37° C.; (b) cells were incubated with a monoclonal antibody to α-tubulin (Sigma; 1:100 dilution; 5% normal goat serum in PBS), followed by a Cy3-conjugated anti-mouse IgG secondary antibody (Amersham, Arlington Heights, Ill.; 1:1000 dilution); and (c) slides were analyzed using the Zeiss Axioskop microscope (rhodamine filter) at 63× magnification.

A549-T12 cells [4] = assay type: cell-based, human
Protocol: Cells were incubated with the different agents for 48 h, fixed, stained with propidium iodide, and analyzed by flow cytometry, as described below.
For the drug substitution experiments, A549-T12 cells were seeded at a density of 3×10^4 cells/mL in 75-cm^2 flasks, and treated with various drugs at the indicated concentrations (FIG. 5). After 48 h, both adherent and nonadherent cells were harvested, fixed in 70% ethanol for at least 20 min, permeabilized with 0.1% Triton X-100 in PBS for 3 min, and stained for 30 min at 37° C. with 10 μg/mL of propidium iodide (Sigma) in a PBS solution containing 1 μg/mL of RNase A (Boehringer Mannheim, Indianapolis, Ind.). Cell-cycle analysis was performed using the Becton Dickinson FACScan and the CellQuest program. […] The cells then were prepared as described above.

Question: For `C=C/C=C\[C@H](C)[C@H](OC(N)=O)[C@@H](C)[C@H](O)[C@@H](C)C/C(C)=C\[C@H](C)[C@@H](O)[C@@H](C)/C=C\[C@@H](O)C[C@@H]1OC(=O)[C@H](C)[C@@H](O)[C@H]1C` [Disco, discodermolide], which Assembly of microtubules (microtubules) is on record?
Answer: enhanced the assembly of stable microtubules

Question: And the “Substrate for P-glycoprotein” value (P-glycoprotein)?
Answer: not substrates for P-glycoprotein

Question: What about the IC50 (SKOV3; Homo sapiens, SK-OV-3, 144 h, read-out: IC50 (drug concentration that inhibits cell division by 50%)) of the same molecule?
Answer: 9.7 ± 0.3 nM

Question: And the “IC50 (drug concentration that inhibits cell division by 50%)” value (SKOV3)?
Answer: decreased but similar responses

Question: What about the “IC50 (drug concentration that inhibits cell division by 50%)” value (A549) of the same molecule?
Answer: comparable activities

Question: And the IC50 (A549; Homo sapiens, read-out: IC50 (drug concentration that inhibits cell division by 50%))?
Answer: 8.1 ± 0.14 nM

Question: What about the “Fold resistance (ratio of IC50 A549-T12 to A549)” value (A549-T12) of the same molecule?
Answer: 0.8 fold

Question: What about the “Fold resistance (ratio of IC50 A549-T12 to A549)” value (A549-T12; listed as discodermolide) of the same molecule?
Answer: no cross-resistance

Question: And the IC50 (A549-T12; Homo sapiens, A549-T12, 72 h, cells maintained in 2 nM Taxol, mean ± SE, read-out: IC50 (drug concentration that inhibits cell division by 50%))?
Answer: 6.5 ± 2.4 nM

Question: And the IC50 (SKVLB; Homo sapiens, Ovarian carcinoma cell, 144 h, SKVLB, 6 days, mean ± SE, read-out: IC50 (drug concentration that inhibits cell division by 50%))?
Answer: 575 ± 233 nM

Question: And the “Fold resistance (ratio of IC50, SKVLB and SKOV3)” value (SKVLB)?
Answer: 59.3 fold

Question: What about the “Fold resistance (ratio of IC50, SKVLB and SKOV3)” value (SKVLB; listed as discodermolide) of the same molecule?
Answer: low-level cross-resistance

Question: And the IC50 (J774.2)?
Answer: 36 ± 5.5 nM

Question: What about the IC50 (J7-T3-1.6; Mus musculus, J7-T3-1.6, 72 h, mean ± SE, read-out: IC50 (drug concentration that inhibits cell division by 50%)) of the same molecule?
Answer: 1050 nM

Question: What about the “Fold resistance (ratio of IC50 J7-T3-1.6 to J774.2)” value (J7-T3-1.6) of the same molecule?
Answer: 29.2 fold

Question: What about the “Fold resistance (ratio of IC50 J7-T3-1.6 to J774.2)” value (J7-T3-1.6; listed as discodermolide) of the same molecule?
Answer: low resistance

Question: What about the “Taxol concentration at which the potency of discodermolide was maximal” value (A549-T12 cells [1]; Taxol titrated with a range of discodermolide concentrations) of the same molecule?
Answer: 2 nM

Question: What about the “Loss of sensitivity of A549-T12 cells to the drug in the absence of 2 nM Taxol” value (A549-T12 cells [1]; absence vs presence of 2 nM Taxol) of the same molecule?
Answer: 20 fold

Question: What about the “Solubility relative to Taxol” value [2] of the same molecule?
Answer: 100 times more soluble than Taxol

Question: What about the “Concentration at which microtubules became arranged in bundle-like formations at the periphery of the cell” value (A549-T12 cells [3]) of the same molecule?
Answer: ≥ 12 nM

Question: What about the “Microtubule cytoskeleton / ability to substitute for Taxol” value (A549-T12 cells [3]; concentrations as in FIG. 4) of the same molecule?
Answer: Neither discodermolide nor vinblastine was able to substitute for Taxol

Question: What about the Cell-cycle profile (A549-T12 cells [4]; 48 h, 2 nM Taxol, discodermolide 2 or 6 nM, other drugs as in FIG. 5) of the same molecule?
Answer: did not prevent the development of a G2-M-phase block

Question: What about the “Reversal of the G2-M-phase block induced by Taxol removal” value (A549-T12 cells [4]; 48 h without Taxol, then 48 h with drug, discodermolide 0.001-24.0 nM, data not shown) of the same molecule?
Answer: irreversible

Question: And the Cell-cycle profile (A549-T12 cells [4]; discodermolide 0.001-1.0 nM)?
Answer: G2-M-phase block

Question: What about the Cell-cycle profile (A549-T12 cells [4]; discodermolide 12-24 nM) of the same molecule?
Answer: substantial increase in the hypodiploid population
